Drawing on ChEMBL document CHEMBL5393441, “Bicyclic heterocyclic compounds as inhibitors ofbcdin3d activity” (2022), this text covers IC50, inhibition and Activity for twelve compounds.

Assay [1] deals with T1, RNA 5'-monophosphate methyltransferase (Homo sapiens, UniProt Q7Z5W3).
T1 sequence (Q7Z5W3 whole entry): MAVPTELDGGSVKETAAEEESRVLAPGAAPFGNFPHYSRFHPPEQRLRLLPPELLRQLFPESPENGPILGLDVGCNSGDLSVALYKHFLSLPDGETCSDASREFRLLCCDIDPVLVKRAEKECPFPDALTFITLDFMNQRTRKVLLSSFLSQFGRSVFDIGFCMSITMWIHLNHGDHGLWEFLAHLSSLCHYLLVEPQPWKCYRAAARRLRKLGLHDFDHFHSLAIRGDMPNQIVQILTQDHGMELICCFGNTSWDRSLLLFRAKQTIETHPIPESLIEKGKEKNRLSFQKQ
As to the kind of experiment: Inhibition of BCDIN3D (unknown origin) using mini-helix and SAM as substrate incubated for 1 hr by RapidFire High Throughput mass spectrometry.

Assay [2] has as its target T1, RNA 5'-monophosphate methyltransferase. The assay is described as follows: Binding affinity towards N-terminal ePL-tagged BCDIN3D (unknown origin) transfected in human A549 cells preincubated for 1 hr and measured by InCellPulse thermal stability assay. The class given is cell-based.
The target of assay [3] is T2, RNA 5'-monophosphate methyltransferase (Homo sapiens) (UniProt Q7Z5W3).
T2 sequence (whole entry): T1 sequence (Q7Z5W3 whole entry)
As to the kind of experiment: Inhibition of BCDIN3D in activated CD4+ T cells isolated from human PBMC stimulated with anti-CD3/CD28 and restimulated with PMA and ionomycin for 4 hrs in the presence of brefeldin A assessed as reduction in IFN-gamma production at 100 to 500 nM. To be noted: T cell, dose 100-500 nM. The class given is cell-based.

The subject of assay [4] is Mus musculus. The assay is described as follows: Antiinflammatory activity in sheep red blood cells (SRBCs)-induced delayed hypersensitivity male CD-1/ICR mouse model at 30 mg/kg administered once daily for 7 days. Format: functional, organism-based. To be noted: time 7.0 day.

Active and inactive are the calls of the source. No cut-off for these calls is given here.

Take `Cn1ncc2c(NCC3CC(C(F)(F)F)C3)nc(NC[C@H](N)c3ccccc3)nc21` (stereo partly drawn): the IC50 (in general, the midpoint of a concentration-inhibition curve) in assay [1] turned out to be 0.017 µM; in assay [2] it was 0.034 µM.

Consider `Cn1ncc2c(NC3CCC(F)(F)C3)nc(NC[C@H](N)c3ccccc3)nc21` (stereo partly drawn), for which the IC50 was found to be 0.45 µM in assay [1] and 0.58 µM in assay [2].

Regarding `Cn1ncc2c(NC(C)(C)C)nc(NC[C@H](N)c3ccccc3)nc21`, in assay [3], the inhibition entry was “Active”. Also, the result in assay [4] was Active.

Regarding `Cn1ncc2c(Nc3ccc(Cl)cc3)nc(NC[C@H](N)c3ccccc3)nc21`, the inhibition entry in assay [3] was “Active”. The outcome in assay [4] was Active.

For the compound `Cn1ncc2c(Nc3cc(F)cc(F)c3)nc(NCC3(N)CC3)nc21`, the IC50 was 1 µM in assay [1] and 4.65 µM in assay [2].

Regarding `Cn1ncc2c(Nc3ccc(C(F)(F)F)nc3)nc(NC[C@@](C)(N)c3ccccc3)nc21`, the IC50 in assay [1] came to 0.0381 µM; in assay [2], 0.133 µM.

`Cn1ncc2c(Nc3ccc(C(F)(F)F)cc3)nc(NCC3(N)COC3)nc21` came in with an IC50 in assay [2] of 6.67 µM.

As to `CNc1nc(NC[C@](C)(N)c2ccccc2)nc2c1cnn2C`, the IC50 in assay [1] was determined as 7.65 µM; in assay [2] it was 10.8 µM.

On to `Cc1ccc(CNc2nc(NCCN)nc3c2cnn3C)cc1Cl`, for which the figures for the IC50 in assay [1] and in assay [2] were 1.65 µM and 6.46 µM, respectively.

Take `Cc1cc(Nc2nc(NCC(N)CF)nc3c2cnn3C)ccc1Cl` (stereo not drawn): the IC50 in assay [1] is 6.17 µM; in assay [2], 5.5 µM.

On to `Cn1ncc2c(NC34CC(C3)C4)nc(NCC(N)c3ccccc3)nc21` (stereo not drawn), for which the IC50 in assay [1] amounted to 0.189 µM; in assay [2], 0.889 µM.

In the case of `COc1cc(Nc2nc(NCC3(N)CC3)nc3c2cnn3C)cc(OC)c1`, the IC50 came out at 1.26 µM in assay [1] and 2.99 µM in assay [2].
